US7247641B2, “Compounds, derivatives, compositions, preparation and uses” (MGI GP, Inc., priority 2001, dated 2007)

Key:
[1] = tested on: focal cerebral ischemia in male Long-Evans rats; experiment: Focal cerebral ischemia: right distal MCA cauterization with temporary bilateral CCA occlusion; format: in vivo, rat; conditions: 24 h, mean±SD
Method: Focal cerebral ischemia is produced by cauterization of the right distal MCA (middle cerebral artery) with bilateral temporary common carotid artery occlusion in male Long-Evans rats for 90 minutes. All procedures performed on the animals are approved by the University Institutional Animal Care and Use Committee of the University of Pennsylvania. A total of 42 rats (weights: 230-340 g) obtained from Charles River were used in this study. The animals fasted overnight with free access to water prior to the surgical procedure.
Two hours prior to MCA occlusion, varying amounts (control, n=14; 5 mg/kg, n=7; 10 mg/kg, n=7; 20 mg/kg, n=7; and 40 mg/kg, n=7) of the compound, 3,4-dihydro-5-[4-(1-piperidinyl)-butoxy]-1(2H)-isoquinolinone (“DPQ”) were dissolved in dimethyl sulfoxide (DMSO) using a sonicator. A volume of 1.28 ml/kg of the resulting solution was injected intraperitoneally into […].
The rats were then anesthetized with halothane (4% for induction and 0.8%-1.2% for the surgical procedure) in a mixture of 70% nitrous oxide and 30% oxygen. The body temperature was monitored by a rectal probe and maintained at 37.5±0.5° C. with a heating blanket regulated by a homeothermiic blanket control unit (Harvard Apparatus Limited, Kent, U.K.). A catheter (PE-50) was placed into the tail artery, and arterial pressure was continuously monitored and recorded on a Grass polygraph recorder (Model 7D, Grass Instruments, Quincy, Mass.). Samples for blood gas analysis (arterial pH, PaO2 and PaCO2) were also taken from the tail artery catheter and measured with a blood gas analyzer (ABL 30, Radiometer, Copenhagen, Denmark). Arterial blood samples were obtained 30 minutes after MCA occlusion.
The head of the animal was positioned in a stereotaxic frame, and a right parietal incision between the right lateral canthus and the external auditory meatus was made. Using a dental drill constantly cooled with saline, a 3 mm burr hole was prepared over the cortex supplied by the right MCA, 4 mm lateral to the sagittal suture and 5 mm caudal to the coronal suture. The dura mater and a thin inner bone layer were kept, care being taken to position the probe over a tissue area devoid of large blood vessels. The flow probe (tip diameter of 1 mm, fiber separation of 0.25 mm) was lowered to the bottom of the cranial burr hole using a micromanipulator. The probe was held stationary by a probe holder secured to the skull with dental cement. The microvascular blood flow in the right parietal cortex was continuously monitored with a laser Doppler flowmeter (FloLab, Moor, Devon, U.K., and Periflux 4001, Perimed, Stockholm, Sweden). […]

[2] = tested on: PARP; conditions: read-out: IC50 for inhibiting PARP; reported by Suto et al.; cited from earlier work
[3] = tested on: ischemia and reperfusion of the heart in rabbits; conditions: cited from earlier work
[4] = tested on: MSU crystal induced neutrophil migration in Swiss albino mice; experiment: MSU crystal-induced neutrophil recruitment (peritonitis gout model); format: in vivo, mouse; conditions: 6 h
Method: Male outbread Swiss albino mice (20-22 g body weight) were purchased from Banton and Kingsman (T. O. strain; Hull, Humberside) and maintained on a standard chow pellet diet with tap water ad libitum and a 12:00 h light/dark cycle. All animals were housed for 1 week prior to experimentation to allow body weight to reach 28-30 g.
1,11b-dihydrobenzopyrano[4,3,2-de ]isoquinolin-1-one was dissolved in 100% DMSO at room temperature at a concentration of 45 mg in 2 ml. The compound was then injected into the peritoneal cavity, so as each mouse received a single dose corresponding to 45 mg/2 ml/kg (e.g. 60 μl for a mouse of 30 g). Control mice received DMSO at 2 ml/kg i.p. A third group of mice which were left untreated were added to control for potential effects of the vehicle. […]
MSU crystal-induced neutrophil recruitment was tested as follows. […] Peritonitis was induced by injection of 3 mg MSU crystals in 0.5 ml PBS (0.1 M, pH 7.4), and the recruitment of neutrophils into the cavity evaluated at the 6 h time point (Getting et al., 1997, J. Pharmacol. Exp. Ther. 283: 123-130). […]
An aliquot (100 μl) of the lavage fluid was then diluted 1:10 in Turk's solution (0.01% crystal violet in 3% acetic acid). The samples were then vortexed and 10 μl of the stained cell solution were placed in a Neubauer haematocymometer and neutrophils numbers counted using a light microscope (Olympus B061). […]

O=C1NCCc2c(OCCCCN3CCCCC3)cccc21 [DPQ, 3,4-dihydro-5-[4-(1-piperidinyl)-butoxy]-1(2H)-isoquinolinone]
damaged volume (infarct volume) ([1]; 5 mg/kg i.p. 2 h before and 2 h after MCA occlusion, control 165.2±34.0): 106.7±23.2 mm^3
damaged volume (infarct volume) ([1]; 10 mg/kg i.p. 2 h before and 2 h after MCA occlusion, control 165.2±34.0): 76.4±16.8 mm^3
damaged volume (infarct volume) ([1]; 20 mg/kg i.p. 2 h before and 2 h after MCA occlusion, control 165.2±34.0): 110.2±42.0 mm^3
damaged volume (infarct volume) ([1]; 40 mg/kg i.p., no significant difference from control 165.2±34.0): 135.6±44.8 mm^3
IC50 [2]: 40 nM

Oc1cccc2c(O)nccc12 [1,5-dihydroxyisoquinoline]
reduction in infarct size ([3]; single injection 1 mg/kg): 38-48%

O=C1N=Cc2cccc3c2C1c1ccccc1O3 (stereo not drawn) [1,11b-dihydrobenzopyrano[4,3,2-de]isoquinolin-1-one]
Neutrophils, mean ± S.E. ([4]; 45 mg/kg i.p. 1 h prior to 3 mg MSU crystals, n=8, vehicle group 6.30 ± 0.33): 2.85 ± 0.34 (8)* 10^6 per mouse
inhibition of cell influx vs. the vehicle group ([4]; 45 mg/kg i.p.): 55%

NC(=O)c1cccc(N)c1 [3-amino-benzamide]
reduction in infarct size in the heart ([3]; single injection 10 mg/kg, one minute before occlusion or before reperfusion): 32-42%
